This passage reports IC50 results from patent US10626112B2, “Heterocyclic sulfonamide derivative and medicine comprising same” (EA PHARMA CO., LTD., priority 2014, dated 2020).

human TRPA1, sequence (O75762 whole entry): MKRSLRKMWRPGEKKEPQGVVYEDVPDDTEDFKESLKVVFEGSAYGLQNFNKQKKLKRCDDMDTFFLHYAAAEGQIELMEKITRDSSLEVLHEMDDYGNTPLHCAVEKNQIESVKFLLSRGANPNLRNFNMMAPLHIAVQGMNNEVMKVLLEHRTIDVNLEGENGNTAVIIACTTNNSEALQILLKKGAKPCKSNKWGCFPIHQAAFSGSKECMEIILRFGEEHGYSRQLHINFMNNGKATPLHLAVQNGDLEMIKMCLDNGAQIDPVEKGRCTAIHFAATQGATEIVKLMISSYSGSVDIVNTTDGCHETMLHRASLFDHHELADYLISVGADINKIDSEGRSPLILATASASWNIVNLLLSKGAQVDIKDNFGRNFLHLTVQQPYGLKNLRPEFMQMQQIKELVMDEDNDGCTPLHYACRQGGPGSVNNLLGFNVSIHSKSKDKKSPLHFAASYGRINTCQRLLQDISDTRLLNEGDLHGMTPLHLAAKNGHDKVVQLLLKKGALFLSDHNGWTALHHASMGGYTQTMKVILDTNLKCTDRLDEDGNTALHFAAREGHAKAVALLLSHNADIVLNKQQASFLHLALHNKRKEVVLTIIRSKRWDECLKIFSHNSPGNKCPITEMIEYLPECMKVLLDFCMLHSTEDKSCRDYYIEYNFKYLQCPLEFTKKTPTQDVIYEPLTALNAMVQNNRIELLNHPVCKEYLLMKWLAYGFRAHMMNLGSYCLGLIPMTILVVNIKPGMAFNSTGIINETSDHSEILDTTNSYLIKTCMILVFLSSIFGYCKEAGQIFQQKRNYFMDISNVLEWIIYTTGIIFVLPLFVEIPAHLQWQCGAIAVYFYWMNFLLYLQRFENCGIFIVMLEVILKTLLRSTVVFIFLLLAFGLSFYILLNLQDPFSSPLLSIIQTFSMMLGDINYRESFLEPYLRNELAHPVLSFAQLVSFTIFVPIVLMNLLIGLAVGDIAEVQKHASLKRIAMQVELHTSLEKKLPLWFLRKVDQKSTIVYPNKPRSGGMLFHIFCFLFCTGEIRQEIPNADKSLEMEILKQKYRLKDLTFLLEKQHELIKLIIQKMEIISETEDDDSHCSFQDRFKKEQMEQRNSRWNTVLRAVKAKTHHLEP

The test addresses human TRPA1 (Homo sapiens (Human), UniProt O75762). Kind of test: Measurement of TRPA1 antagonist activity (1): intracellular calcium increase. Conditions: 293T cells transfected with human TRPA1 expression plasmid; allylisothiocyanate 20 μM stimulation; intracellular calcium fluorescence; read-out: hTRPA1 IC50. It is filed as cell-based. A digest of the protocol:
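HEK293T cells transiently transfected with full-length human TRPA1, loaded with Calcium4 dye in HBSS/20 mM HEPES pH 7.2. Test compound preincubated 10 min, then allylisothiocyanate added at 20 μM final and fluorescence change followed for 5 min. IC50 from sigmoid fit of percent inhibition relative to agonist and buffer controls.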
(Calcium assays in cells follow changes in intracellular calcium, usually with a dye or a luminescent sensor.)
In the case of `N#Cc1ccc(-c2cc(CNC(=O)[C@@H]3CCCN3S(=O)(=O)c3cc4ccccc4o3)ccn2)cc1F` [Example 119, (2S)-1-(benzofuran-2-ylsulfonyl)-N-[[2-(4-cyano-3-fluoro-phenyl)-4-pyridyl]methyl]pyrrolidine-2-carboxamide], the IC50 – broadly, the concentration that gives 50% inhibition – was 0.012 µM.
In the case of `O=C(NCc1ccnc(-c2ccccc2O)c1)[C@@H]1CCCN1S(=O)(=O)c1cc2ccccc2o1` [Example 120, (2S)-1-(benzofuran-2-ylsulfonyl)-N-[[2-(2-hydroxyphenyl)-4-pyridyl]methyl]pyrrolidine-2-carboxamide], the IC50 was 0.18 µM.
As for `O=C(NCc1ccnc(-c2ccc(F)cc2O)c1)[C@@H]1CCCN1S(=O)(=O)c1cc2ccccc2o1` [Example 121, (2S)-1-(benzofuran-2-ylsulfonyl)-N-[[2-(4-fluoro-2-hydroxy-phenyl)-4-pyridyl]methyl]pyrrolidine-2-carboxamide], the IC50 amounted to 0.032 µM.
As for `O=C(NCc1ccnc(-c2cc(F)c(F)cc2O)c1)[C@@H]1CCCN1S(=O)(=O)c1cc2ccccc2o1` [Example 122, (2S)-1-(benzofuran-2-ylsulfonyl)-N-[[2-(4,5-difluoro-2-hydroxy-phenyl)-4-pyridyl]methyl]pyrrolidine-2-carboxamide], the IC50 worked out at 0.17 µM.
For `O=C(NCc1ccnc(-c2ccc(C(F)(F)F)cc2O)c1)[C@@H]1CCCN1S(=O)(=O)c1cc2ccccc2o1` [Example 123, (2S)-1-(benzofuran-2-ylsulfonyl)-N-[[2-[2-hydroxy-4-(trifluoromethyl)phenyl]-4-pyridyl]methyl]pyrrolidine-2-carboxamide], the IC50 came to 0.0026 µM.
Take `O=C(NCc1ccnc(-c2ccc(C(F)(F)F)nc2)c1)[C@@H]1CCCN1S(=O)(=O)c1cc2ccccc2o1` [Example 124, (2S)-1-(benzofuran-2-ylsulfonyl)-N-[[2-[6-(trifluoromethyl)-3-pyridyl]-4-pyridyl]methyl]pyrrolidine-2-carboxamide]: the half-maximal inhibitory concentration (IC50) was 0.0034 µM.
For the molecule `CN(C)c1ccc(-c2cc(CNC(=O)[C@@H]3CCCN3S(=O)(=O)c3cc4ccccc4o3)ccn2)cn1` [Example 125, (2S)-1-(benzofuran-2-ylsulfonyl)-N-[[2-[6-(dimethylamino)-3-pyridyl]-4-pyridyl]methyl]pyrrolidine-2-carboxamide], the 50% inhibitory concentration (IC50) is 0.24 µM.
As to `N#Cc1ccc(-c2cc(CNC(=O)[C@@H]3CCCN3S(=O)(=O)c3cc4ccccc4o3)ccn2)c(OCc2ccccc2)c1` [Example 126, (2S)-1-(benzofuran-2-ylsulfonyl)-N-[[2-(2-benzyloxy-4-cyano-phenyl)-4-pyridyl]methyl]pyrrolidine-2-carboxamide], the IC50 turned out to be 0.078 µM.
`Cn1nc(C(F)(F)F)cc1-c1cc(CNC(=O)[C@@H]2CCCN2S(=O)(=O)c2cc3ccccc3o2)ccn1` [Example 127, (2S)-1-(benzofuran-2-ylsulfonyl)-N-[[2-[2-methyl-5-(trifluoromethyl)pyrazol-3-yl]-4-pyridyl]methyl]pyrrolidine-2-carboxamide]: the IC50 turned out to be 0.025 µM.
For `O=C(NCc1ccnc(-c2ccc(C(F)(F)F)cc2)c1)[C@@H]1CCCN1S(=O)(=O)c1cc2cc(F)ccc2o1` [Example 128, (2S)-1-(5-fluorobenzofuran-2-yl)sulfonyl-N-[[2-[4-(trifluoromethyl)phenyl]-4-pyridyl]methyl]pyrrolidine-2-carboxamide] the value was 0.00061 µM; for `O=C(NCc1ccnc(-c2ccc(OC(F)(F)F)cc2)c1)[C@@H]1CCCN1S(=O)(=O)c1cc2cc(F)ccc2o1` [Example 129, (2S)-1-(5-fluorobenzofuran-2-yl)sulfonyl-N-[[2-[4-(trifluoromethoxy)phenyl]-4-pyridyl]methyl]pyrrolidine-2-carboxamide], 0.00061 µM.
Then `O=C(NCc1ccnc(-c2ccc(OC(F)F)cc2)c1)[C@@H]1CCCN1S(=O)(=O)c1cc2cc(F)ccc2o1` [Example 130, (2S)-N-[[2-[4-(difluoromethoxy)phenyl]-4-pyridyl]methyl]-1-(5-fluorobenzofuran-2-yl)sulfonyl-pyrrolidine-2-carboxamide], with 0.002 µM; and `COc1ccc(-c2cc(CNC(=O)[C@@H]3CCCN3S(=O)(=O)c3cc4cc(F)ccc4o3)ccn2)cc1` [Example 131, (2S)-1-(5-fluorobenzofuran-2-yl)sulfonyl-N-[[2-(4-methoxyphenyl)-4-pyridyl]methyl]pyrrolidine-2-carboxamide], with 0.032 µM; and `N#Cc1ccc(-c2cc(CNC(=O)[C@@H]3CCCN3S(=O)(=O)c3cc4cc(F)ccc4o3)ccn2)cc1` [Example 132, (2S)-N-[[2-(4-cyanophenyl)-4-pyridyl]methyl]-1-(5-fluorobenzofuran-2-yl)sulfonyl-pyrrolidine-2-carboxamide], with 0.0076 µM.
In the case of `O=C(NCc1ccnc(-c2ccc(C(F)(F)F)nc2)c1)[C@@H]1CCCN1S(=O)(=O)c1cc2cc(F)ccc2o1` [Example 133, (2S)-1-(5-fluorobenzofuran-2-yl)sulfonyl-N-[[2-[6-(trifluoromethyl)-3-pyridyl]-4-pyridyl]methyl]pyrrolidine-2-carboxamide], the IC50 was found to be 0.00083 µM.
Regarding `O=C(NCc1ccnc(-c2cnc(C3CC3)nc2)c1)[C@@H]1CCCN1S(=O)(=O)c1cc2cc(F)ccc2o1` [Example 134, (2S)-N-[[2-(2-cyclopropylpyrimidin-5-yl)-4-pyridyl]methyl]-1-(5-fluorobenzofuran-2-yl)sulfonyl-pyrrolidine-2-carboxamide], the IC50 worked out at 0.042 µM.
With `O=C(NCc1ccnc(-c2ccccc2O)c1)[C@@H]1CCCN1S(=O)(=O)c1cc2cc(F)ccc2o1` [Example 135, (2S)-1-(5-fluorobenzofuran-2-yl)sulfonyl-N-[[2-(2-hydroxyphenyl)-4-pyridyl]methyl]pyrrolidine-2-carboxamide], the IC50 came out at 0.03 µM.
For `O=C(NCc1ccnc(-c2ccc(F)cc2O)c1)[C@@H]1CCCN1S(=O)(=O)c1cc2cc(F)ccc2o1` [Example 136, (2S)-1-(5-fluorobenzofuran-2-yl)sulfonyl-N-[[2-(4-fluoro-2-hydroxy-phenyl)-4-pyridyl]methyl]pyrrolidine-2-carboxamide], the concentration for half-maximal inhibition (IC50) is 0.013 µM.
In the case of `O=C(NCc1ccnc(-c2cc(F)c(F)cc2O)c1)[C@@H]1CCCN1S(=O)(=O)c1cc2cc(F)ccc2o1` [Example 137, (2S)-N-[[2-(4,5-difluoro-2-hydroxy-phenyl)-4-pyridyl]methyl]-1-(5-fluorobenzofuran-2-yl)sulfonyl-pyrrolidine-2-carboxamide], the IC50 came out at 0.029 µM.
For `O=C(NCc1ccnc(-c2ccc(C(F)(F)F)cc2O)c1)[C@@H]1CCCN1S(=O)(=O)c1cc2cc(F)ccc2o1` [Example 138, (2S)-1-(5-fluorobenzofuran-2-yl)sulfonyl-N-[[2-[2-hydroxy-4-(trifluoromethyl)phenyl]-4-pyridyl]methyl]pyrrolidine-2-carboxamide], the half-inhibitory concentration (IC50) was 0.00097 µM.
For `O=C(NCc1cncc(-c2ccc(C(F)(F)F)cc2)c1)[C@@H]1CCCN1S(=O)(=O)c1cc2cc(F)ccc2o1` [Example 139, (2S)-1-(5-fluorobenzofuran-2-yl)sulfonyl-N-[[5-[4-(trifluoromethyl)phenyl]-3-pyridyl]methyl]pyrrolidine-2-carboxamide] the value was 0.003 µM.
`O=C(NCc1cncc(-c2ccc(C(F)(F)F)nc2)c1)[C@@H]1CCCN1S(=O)(=O)c1cc2cc(F)ccc2o1` [Example 140, (2S)-1-(5-fluorobenzofuran-2-yl)sulfonyl-N-[[5-[6-(trifluoromethyl)-3-pyridyl]-3-pyridyl]methyl]pyrrolidine-2-carboxamide]: the IC50 was determined as 0.0022 µM.
Then `O=C(NCc1cncc(-c2ccc(C(F)(F)F)cn2)c1)[C@@H]1CCCN1S(=O)(=O)c1cc2cc(F)ccc2o1` [Example 141, (2S)-1-(5-fluorobenzofuran-2-yl)sulfonyl-N-[[5-[5-(trifluoromethyl)-2-pyridyl]-3-pyridyl]methyl]pyrrolidine-2-carboxamide], with 0.0033 µM.
Then `N#Cc1ccc(-c2cncc(CNC(=O)[C@@H]3CCCN3S(=O)(=O)c3cc4cc(F)ccc4o3)c2)cc1` [Example 142, (2S)-N-[[5-(4-cyanophenyl)-3-pyridyl]methyl]-1-(5-fluorobenzofuran-2-yl)sulfonyl-pyrrolidine-2-carboxamide], with 0.024 µM; and `O=C(NCc1cccc(-c2ccccc2O)n1)[C@@H]1CCCN1S(=O)(=O)c1cc2cc(F)ccc2o1` [Example 143, (2S)-1-(5-fluorobenzofuran-2-yl)sulfonyl-N-[[6-(2-hydroxyphenyl)-2-pyridyl]methyl]pyrrolidine-2-carboxamide], with 0.26 µM; and `O=C(NCc1cccc(-c2ccc(C(F)(F)F)cc2)n1)[C@@H]1CCCN1S(=O)(=O)c1cc2cc(F)ccc2o1` [Example 144, (2S)-1-(5-fluorobenzofuran-2-yl)sulfonyl-N-[[6-[4-(trifluoromethyl)phenyl]-2-pyridyl]methyl]pyrrolidine-2-carboxamide], with 0.047 µM.
Then `O=C(NCc1cccc(-c2ccc(C(F)(F)F)nc2)n1)[C@@H]1CCCN1S(=O)(=O)c1cc2cc(F)ccc2o1` [Example 145, (2S)-1-(5-fluorobenzofuran-2-yl)sulfonyl-N-[[6-[6-(trifluoromethyl)-3-pyridyl]-2-pyridyl]methyl]pyrrolidine-2-carboxamide], with 0.029 µM; and `N#Cc1ccc(-c2cccc(CNC(=O)[C@@H]3CCCN3S(=O)(=O)c3cc4cc(F)ccc4o3)n2)cc1` [Example 146, (2S)-N-[[6-(4-cyanophenyl)-2-pyridyl]methyl]-1-(5-fluorobenzofuran-2-yl)sulfonyl-pyrrolidine-2-carboxamide], with 0.31 µM; and `O=C(NCc1cccc(-c2ccc(C(F)(F)F)cc2O)n1)[C@@H]1CCCN1S(=O)(=O)c1cc2cc(F)ccc2o1` [Example 147, (2S)-1-(5-fluorobenzofuran-2-yl)sulfonyl-N-[[6-[2-hydroxy-4-(trifluoromethyl)phenyl]-2-pyridyl]methyl]pyrrolidine-2-carboxamide], with 0.18 µM.
